{"source": "paper PMC5047629", "about": "“Synthesis, Pharmacological Profile and Docking Studies of New Sulfonamides Designed as Phosphodiesterase-4 Inhibitors” (PLoS ONE, 2016)", "key": {"A/J mice [1]": {"tested_on": "A/J mice", "assay": "Duration of xylazine/ketamine anesthesia (behavioral correlate of emesis)", "assay_type": "in vivo", "description": "This assessment was carried out as previously reported. […] The animals were placed in dorsal position and their spontaneous return to the prone position was used as an endpoint to determine anesthesia duration."}, "A/J mice [2]": {"tested_on": "A/J mice", "assay": "Murine model of asthma with 4 weekly OVA provocations (days 14, 21, 28, 35), interventional treatment", "assay_type": "in vivo", "conditions": "LASSBio-448 100 mg/Kg oral", "description": "Sensitization was performed by means of a subcutaneous injection of 50 μg ovalbumin (OVA) (grade V; Sigma-Aldrich, St. Louis, MO) adsorbed to 5 mg of Al(OH)3 in 0.2 mL of sterile 0.9% NaCl (saline) at days 0 and 14. Intranasal OVA provocations (25 μg /25 μL saline) were performed at 19 and 20 days post-sensitization under isofluorane volatile anaesthesia (Cristalia, São Paulo, Brazil). Alternatively, sensitization as described above were done at days 0 and 7, while the OVA provocations were carried out at days 14, 21, 28 and 35 [39]. Negative control groups were represented by sensitized mice in which allergen was replaced by saline as a challenge. Treatments were done orally 1 h before provocations. Test compounds were dissolved in saline containing 0.2% Tween 80. All solutions were freshly prepared immediately before use. Analyses were performed 24 h after the last provocation.\nAirflow and transpulmonary pressure were recorded with a Buxco pulmonary mechanics processing system (Buxco Electronics, Sharon, CT), which calculated resistance (cmH2O.s/ml) and dynamic lung compliance (mL/cmH2O) in each breath cycle. Elastance was calculated as the inverse of compliance values. Mice were anesthetized with nembutal (60 mg/kg), and the neuromuscular activity was blocked with bromide pancuronium (1 mg/kg). Animals were allowed to stabilize for 5 min and increasing concentrations of methacholine (3–27 mg/mL) were aerosolized for 5 min each. Baseline pulmonary parameters were assessed with aerosolized phosphate buffer solution (PBS).\nThe EPO activity present in lung tissue was determined with a colorimetric assay as described by Strath et al. (1985), with minor modifications. Briefly, the lungs were cannulated and perfused with saline/EDTA (20 mM). Then, lung samples were homogenized in buffer solution containing 0.5% HBSS (Hank´s balanced solution, pH 7.4; Sigma Chemical Co.) using a tissue homogenizer (T25 ultra-Tirrax). Samples were centrifuged at 1300 xg for 10 min at 4°C. Red blood cells were removed by hypotonic and hypertonic lysis. The suspended cells were then centrifuged again at 1300 xg for 10 min at 4°C. The pellet was then suspended in a solution of HBSS containing 0.5% of HTAB (hexadecyltrimethylamonium bromide; Sigma Chemical Co.) (pH 7.4). This suspension was subjected to heat shock for lysing the cells in three cycles freeze/thawed. At the end, the supernatants were collected, centrifuged at 12000 rpm for 15 min at 4°C and assayed spectrophotometrically for EPO determination. Fifty μl of the samples were placed, and then 50 μl of the substrate (1.5 mM o-phenylenediamine and 6.6 mM hydrogen peroxide in 0.05 mM Tris-HCl buffer, pH 8.0) was added and, after a 30 min incubation at room temperature, 50 μl of H2SO4 (4M) was added to stop the reaction. The optical density reading was performed on the SpectraMax M5 spectrophotometer (Molecular Devices) at a wavelength of 492 nm.\nRight lungs tissue samples from saline- and OVA-exposed mice were homogenized in PBS containing 0.05% Triton X-100 and a protease inhibitor cocktail (Complete®, Hoffmann-La Roche Ltd, Basel, Switzerland). After centrifugation at 13000xg for 10 min and 4°C, the levels of IL-13, IL-5, IL-4 and eotaxin-2 were quantified in the supernatant, using commercially available ELISA kits (DuoSet; R&D Systems, Minneapolis, MN, USA). The results were expressed as picograms of cytokine per right lung."}, "[3]": {"conditions": "rolipram 10 mg/Kg oral, right lung, 24 h after last challenge, vs vehicle, Fig 8"}}, "data": [{"smiles": "COc1ccc(CCNS(=O)(=O)c2cc3c(cc2C)OCO3)cc1OC", "note": "[6a (LASSBio-448), N-(3,4-dimethoxyphenethyl)-6-methylbenzo[d][1, 3]dioxole-5-sulfonamide]", "values": [{"measurement": "reduction of sleep time (duration of xylazine/ketamine anesthesia)", "setting": "A/J mice [1]; 11 μmol/Kg oral", "result": 24.1, "unit": "%"}, {"measurement": "reduction of sleep time (duration of xylazine/ketamine anesthesia)", "setting": "A/J mice [1]; 27 μmol/Kg oral", "result": 26.6, "unit": "%"}, {"measurement": "reduction of sleep time (duration of xylazine/ketamine anesthesia)", "setting": "A/J mice [1]; 80 μmol/Kg oral", "result": 35.5, "unit": "%"}, {"measurement": "fold less pro-emetic than rolipram", "setting": "A/J mice [1]; vs rolipram", "result": "at least 7 fold"}, {"measurement": "extracellular matrix deposition (histology)", "setting": "A/J mice [2]; interventional, Fig 6", "result": "sensitive to the interventional treatment"}, {"measurement": "mucus exacerbation (histology)", "setting": "A/J mice [2]; interventional, Fig 6", "result": "sensitive to the interventional treatment"}, {"measurement": "airway hyper-reactivity to methacholine, airway resistance", "setting": "A/J mice [2]; rolipram 10 mg/Kg oral, Fig 7A", "result": "equally effective in inhibiting"}, {"measurement": "airway hyper-reactivity to methacholine, lung elastance", "setting": "A/J mice [2]; rolipram 10 mg/Kg oral, Fig 7B", "result": "equally effective in inhibiting"}, {"measurement": "IL-4 level in lung tissue", "setting": "A/J mice [2]; [3]", "result": "reduction in the levels"}, {"measurement": "IL-5 level in lung tissue", "setting": "A/J mice [2]; [3]", "result": "reduction in the levels"}, {"measurement": "IL-13 level in lung tissue", "setting": "A/J mice [2]; [3]", "result": "reduction in the levels"}, {"measurement": "eotaxin-2 level in lung tissue", "setting": "A/J mice [2]; [3]", "result": "reduction in the levels"}, {"measurement": "allergen-induced eosinophil accumulation in the lung tissue (eosinophil peroxidase)", "setting": "A/J mice [2]; rolipram 10 mg/kg oral, at third and fourth weeks of challenge, Fig 5", "result": "impair the progress"}]}]}
